Entries after “also recorded” stand apart in the source; their conditions may differ. Where two headings read alike, the source gives them in different places.
Assays:
[1] = In vivo pharmacokinetics study; conditions: male, Sprague-Dawley, plasma, rat; for MRT inf: read-out: MRT(0-∞)
Method: The final concentration of the stock solution was 1 mg/mL for administration. […] Each time about 0.2 mL blood was collected through the jugular vein adding heparin for anticoagulation and kept on ice. Then plasma was separated by centrifugation at 8000 rpm for 6 minutes at 2–8°C. The obtained plasma was stored at −80°C before analysis. After finishing the test, all surviving animals will be transferred to the repository or euthanasia (CO2 asphyxiation).

BCR-ABL = target: T1, BCR-ABL (Homo sapiens, UniProt P00519); assay: BCR-ABL auto-phosphorylation (Y245) immunoblotting in K562 cells; format: cell-based
T1 construct: BCR N-terminal part (natural fusion partner of p210 BCR-ABL); endogenous in cells; host or cells: K562
Method: Cells were washed with ice cold phosphate buffered saline (PBS), lysed using radio-immunoprecipitation (RIPA) buffer [150 mM NaCl, 1% (vol/vol) Nonidet P-40, 0.5% (wt/vol) sodium deoxycholate, 0.1% (wt/vol) SDS] in 50 mM Tris HCl (pH 8.0) supplemented with protease and phosphatase inhibitors (Thermo, USA). Protein concentrations were determined using the BCA Protein Assay kit (Beyotime, China) according to the manufacturer's protocol. Proteins were separated by SDS-PAGE and transferred to an Immobilon-P PVDF membrane (Millipore, USA), and blocked in 5% dry milk in Tris Buffered Saline, with Tween 20 (TBST). Membranes were incubated with primary and secondary antibodies, and target proteins were detected with ECL detection reagent (Pierce, USA). β-Actin (Sigma-Aldrich) served as a loading control. Phospho-c-Abl (Tyr245)(73E5) Rabbit mAb (2868), c-Abl antibody (2862), STAT5 (3H7) Rabbit mAb (9358), Phospho-STAT5 (Tyr694)(C71E5) Rabbit mAb (9314), Akt (pan)(C67E7) Rabbit mAb (4691), Phospho-Akt (Thr308) (244F9) Rabbit mAb (4056), Phospho-Akt (Ser473) (D9E) XP® Rabbit mAb (4060), Phospho-CrkL (Tyr207) antibody (3181), CrkL (32H4) Mouse mAb (3182), Phospho-p44/42 MAPK (Erk1/2) (Thr202/Tyr204) (197G2) Rabbit mAb (4377), p44/42 MAPK (Erk1/2) (137F5) Rabbit mAb (4695) antibodies were obtained from Cell Signaling Technology (MA, USA).

KIT(V559D) = target: T2, KIT(V559D) (Homo sapiens, UniProt P10721, V559D); assay: KinomeScan profiling; format: binding; conditions: 1 µM CHMFL-074; read-out: % Control
T2 construct: purchased DiscoveRx (KinomeScan service)

K562 tumor xenografts = assay: K562 xenograft tumor model; format: in vivo
Excerpt: Five-week old female nu/nu mice were purchased from the Shanghai Experimental Center, Chinese Science Academy (Shanghai, China). All animals were housed in a specific pathogen-free facility and used according to the animal care regulations of Hefei Institutes of Physical Science Chinese Academy of Sciences. Prior to implantation, cells were harvested during exponential growth. Five million K562 cells in PBS were formulated as a 1:1 mixture with Matrigel (BD Biosciences) and injected into the subcutaneous space on the right flank of nu/nu mice. Daily oral administration was initiated when K562 tumors had reached a size of 200 to 300 mm^3. Animals were then randomized into treatment groups of 6 mice each for efficacy studies. CHMFL-074 was delivered daily in a HKI solution (0.5% Methocellulose/0.4% Tween 80 in dd H2O) by orally gavage. Body weight was measured daily and tumor growth was measured every day after CHMFL-074 treatment. Tumor volumes were calculated as follows: tumor volume (mm^3) = [(W^2 × L)/2] in which width (W) is defined as the smaller of the two measurements and length (L) is defined as the larger of the two measurements.

T1 sequence (P00519 whole entry, looked up, the tested form may be a part): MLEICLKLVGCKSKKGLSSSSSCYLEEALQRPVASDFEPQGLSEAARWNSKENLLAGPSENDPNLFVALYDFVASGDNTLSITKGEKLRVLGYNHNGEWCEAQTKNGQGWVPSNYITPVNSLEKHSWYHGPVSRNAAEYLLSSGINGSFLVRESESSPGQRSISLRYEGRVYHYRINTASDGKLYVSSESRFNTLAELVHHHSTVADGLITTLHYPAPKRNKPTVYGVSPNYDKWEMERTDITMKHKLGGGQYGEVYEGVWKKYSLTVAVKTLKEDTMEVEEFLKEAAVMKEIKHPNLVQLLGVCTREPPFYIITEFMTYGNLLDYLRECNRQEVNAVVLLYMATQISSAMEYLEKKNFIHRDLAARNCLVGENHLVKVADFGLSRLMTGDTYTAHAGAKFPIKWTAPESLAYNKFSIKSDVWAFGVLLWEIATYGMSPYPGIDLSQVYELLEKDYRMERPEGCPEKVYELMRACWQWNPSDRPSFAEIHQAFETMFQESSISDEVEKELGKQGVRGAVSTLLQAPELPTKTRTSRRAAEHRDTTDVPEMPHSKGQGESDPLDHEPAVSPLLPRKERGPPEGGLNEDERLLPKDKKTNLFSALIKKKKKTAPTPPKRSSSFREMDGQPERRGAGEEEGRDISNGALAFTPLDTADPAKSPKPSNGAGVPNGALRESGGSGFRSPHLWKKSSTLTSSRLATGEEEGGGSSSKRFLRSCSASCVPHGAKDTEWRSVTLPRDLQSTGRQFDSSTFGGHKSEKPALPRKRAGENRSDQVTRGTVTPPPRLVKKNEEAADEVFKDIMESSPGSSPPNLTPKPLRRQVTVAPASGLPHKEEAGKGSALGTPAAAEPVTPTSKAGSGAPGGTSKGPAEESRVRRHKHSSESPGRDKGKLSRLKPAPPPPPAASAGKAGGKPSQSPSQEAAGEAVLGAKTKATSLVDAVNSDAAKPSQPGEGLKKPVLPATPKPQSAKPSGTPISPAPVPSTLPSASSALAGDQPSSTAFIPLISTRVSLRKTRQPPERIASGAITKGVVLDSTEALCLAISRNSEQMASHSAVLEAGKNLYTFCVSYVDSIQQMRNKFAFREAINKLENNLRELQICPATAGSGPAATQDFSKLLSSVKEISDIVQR
T2 sequence (P10721 26-976 V559D): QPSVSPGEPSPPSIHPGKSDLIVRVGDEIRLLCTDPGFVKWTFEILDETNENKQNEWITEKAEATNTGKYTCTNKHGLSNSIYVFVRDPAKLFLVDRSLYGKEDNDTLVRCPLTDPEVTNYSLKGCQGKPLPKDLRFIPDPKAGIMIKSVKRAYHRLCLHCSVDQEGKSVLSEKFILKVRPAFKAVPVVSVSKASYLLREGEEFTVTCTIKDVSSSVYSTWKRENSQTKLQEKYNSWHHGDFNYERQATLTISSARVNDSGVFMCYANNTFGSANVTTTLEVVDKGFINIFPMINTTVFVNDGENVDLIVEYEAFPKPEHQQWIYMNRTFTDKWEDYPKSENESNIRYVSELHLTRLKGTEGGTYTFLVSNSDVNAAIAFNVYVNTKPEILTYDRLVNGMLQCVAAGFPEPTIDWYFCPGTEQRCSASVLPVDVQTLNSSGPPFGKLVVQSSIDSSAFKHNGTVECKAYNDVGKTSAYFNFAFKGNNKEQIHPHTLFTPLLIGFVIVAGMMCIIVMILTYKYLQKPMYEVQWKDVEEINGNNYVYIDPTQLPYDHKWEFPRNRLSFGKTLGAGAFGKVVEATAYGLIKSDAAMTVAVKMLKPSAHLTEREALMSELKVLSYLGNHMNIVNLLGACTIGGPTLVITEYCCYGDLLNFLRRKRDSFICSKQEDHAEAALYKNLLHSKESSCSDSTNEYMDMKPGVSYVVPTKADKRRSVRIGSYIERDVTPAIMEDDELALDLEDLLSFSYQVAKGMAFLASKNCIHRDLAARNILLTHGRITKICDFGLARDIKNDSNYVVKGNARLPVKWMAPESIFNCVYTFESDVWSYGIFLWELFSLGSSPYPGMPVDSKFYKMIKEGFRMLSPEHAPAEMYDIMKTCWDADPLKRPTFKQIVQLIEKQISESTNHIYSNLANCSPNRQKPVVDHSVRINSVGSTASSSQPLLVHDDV

SMILES: Cc1ccc(NC(=O)c2ccc(CN3CCN(C)CC3)c(C(F)(F)F)c2)cc1OC1CCN(C(=O)c2cccnc2)CC1 [CHMFL-074]
- AUC(0-inf) ([1]; IV 1mg/kg, mean): 340 ng·h/mL
- AUC(0-t) ([1]; IV 1mg/kg, mean): 337 ng·h/mL
- Cmax ([1]; IV 1mg/kg, mean): 739 ng/mL
- Tmax ([1]; IV 1mg/kg, mean): 0.02 h
- half-life ([1]; IV 1mg/kg, mean): 1.23 h
- clearance ([1]; IV 1mg/kg, mean, read-out: CLz (converted)): 49.3 mL/min/kg
- MRT inf ([1]; IV 1mg/kg, mean): 1.29 h
- Vd ([1]; IV 1mg/kg, mean, read-out: Vz): 5.25 L/kg
- AUC(0-inf) ([1]; PO 10 mg/kg, mean): 1460 ng·h/mL
- AUC(0-t) ([1]; PO 10 mg/kg, mean): 1130 ng·h/mL
- Cmax ([1]; PO 10 mg/kg, mean): 190 ng/mL
- Tmax ([1]; PO 10 mg/kg, mean): 4 h
- half-life ([1]; PO 10 mg/kg, mean): 3.38 h
- MRT inf ([1]; PO 10 mg/kg, mean): 6.58 h
- bioavailability ([1]; PO 10 mg/kg, read-out: F (bioavailability)): 42.9%
- EC50 (BCR-ABL): < 100 nM
- remaining binding at 1 µM (KIT(V559D)): 0.45%
- TGI (tumor growth inhibition) (K562 tumor xenografts; 100 mg/kg/d oral, 12-day treatment): 65%
- toxicity in xenograft mice (K562 tumor xenografts; 100 mg/kg/day oral): without exhibiting apparent toxicity; also recorded: no apparent toxicity was observed

Reference: PMC5216742, “Discovery and characterization of a novel potent type II native and mutant BCR-ABL inhibitor (CHMFL-074) for Chronic Myeloid Leukemia (CML)” (Oncotarget, 2016)
